Data: ChEMBL document CHEMBL5352465, “Small molecules containing chalcogen elements (S, Se, Te) as new warhead to fight neglected tropical diseases” (Eur J Med Chem, 2023)
pIC50: −log10 of the molar value.

What was measured:
[1] = Selectivity index, ratio of CC50 for human WI26VA4 cells to ratio of IC50 for antileishmanial activity against Leishmania infantum MHOM/BR/74/PP75 promastigote; assay type: toxicity; conditions: read-out: Ratio CC50/IC50
[2] = Selectivity index, ratio of CC50 for human WI26VA4 cells to ratio of IC50 for antileishmanial activity against Leishmania braziliensis MHOM/BR/75/M2903 promastigote; assay type: toxicity; conditions: read-out: Ratio CC50/IC50
[3] = system: Leishmania braziliensis; test: Antileishmanial activity against Leishmania braziliensis MHOM/BR/75/M2903 strain promastigotes assessed as reduction in cell viability incubated for 48 hrs by MTT assay; assay type: functional, organism-based; conditions: MHOM/BR/75/M2903, 48 h
[4] = system: Leishmania infantum; test: Antileishmanial activity against Leishmania infantum MHOM/BR/74/PP75 strain promastigotes assessed as reduction in cell viability incubated for 48 hrs by MTT assay; assay type: functional, organism-based; conditions: MHOM/BR/74/PP75, 48 h
[5] = system: Leishmania infantum; test: Antileishmanial activity against Leishmania infantum promastigotes assessed as reduction in cell viability; assay type: functional, organism-based
[6] = system: Leishmania amazonensis; test: Antileishmanial activity against Leishmania amazonensis promastigotes assessed as inhibition of parasite growth; assay type: functional, organism-based
[7] = system: Leishmania major; test: Antileishmanial activity against Leishmania major promastigote assessed as inhibition of parasite growth; assay type: functional, organism-based
[8] = system: Leishmania infantum; test: Antileishmanial activity against Leishmania infantum amastigotes assessed as inhibition of parasite growth; assay type: functional, organism-based
[9] = system: Leishmania infantum; test: Antileishmanial activity against Leishmania infantum promastigotes assessed as inhibition of parasite growth; assay type: functional, organism-based
[10] = system: Trypanosoma cruzi; test: Antitrypanosomal activity against Trypanosoma cruzi arequipa strain trypomastigotes assessed as parasite growth inhibition incubated for 48 hrs by resazurin staining based analysis; assay type: functional, organism-based
[11] = system: Trypanosoma cruzi; test: Antitrypanosomal activity against Trypanosoma cruzi arequipa strain epimastigotes assessed as parasite growth inhibition incubated for 48 hrs by resazurin staining based analysis; assay type: functional, organism-based
[12] = system: Trypanosoma cruzi; test: Antitrypanosomal activity against Trypanosoma cruzi arequipa strain amastigotes assessed as parasite growth inhibition incubated for 48 hrs by resazurin staining based analysis; assay type: functional, organism-based
[13] = Selectivity index, ratio of CC50 for cytotoxicity against mouse RAW264.7 cells to IC50 for antitrypanosomal activity against Trypanosoma cruzi epimastigote; assay type: toxicity, cell-based; conditions: read-out: Ratio CC50/IC50
[14] = system: Trypanosoma cruzi; test: Antitrypanosomal activity against Trypanosoma cruzi amastigote assessed as parasite growth inhibition; assay type: functional, organism-based
[15] = system: Trypanosoma cruzi; test: Antitrypanosomal activity against Trypanosoma cruzi epimastigote Dm28c strain assessed as parasite growth inhibition; assay type: functional, organism-based
[16] = Selectivity index, ratio of CC50 for cytotoxicity against mouse RAW264.7 cells to IC50 for antitrypanosomal activity against Trypanosoma cruzi amastigote; assay type: toxicity, cell-based; conditions: read-out: Ratio CC50/IC50
[17] = system: Trypanosoma cruzi; test: Antitrypanosomal activity against bloodstream Trypanosoma cruzi NINOA strain trypomastigotes assessed as parasite growth inhibition incubated for 24 hrs by microscopic analysis; assay type: functional
[18] = Selectivity index, ratio of CC50 for mouse J774.A1 cells to ratio of IC50 for antitrypanosomal activity against bloodstream Trypanosoma cruzi NINOA strain trypomastigotes; assay type: toxicity; conditions: read-out: Ratio CC50/IC50
[19] = system: Trypanosoma cruzi; test: Antitrypanosomal activity against bloodstream Trypanosoma cruzi INC-5 strain trypomastigotes assessed as parasite growth inhibition incubated for 24 hrs by microscopic analysis; assay type: functional
[20] = Selectivity index, ratio of CC50 for mouse J774.A1 cells to ratio of IC50 for antitrypanosomal activity against bloodstream Trypanosoma cruzi INC-5 strain trypomastigotes; assay type: toxicity; conditions: read-out: Ratio CC50/IC50
[21] = system: Trypanosoma cruzi; test: Antitrypanosomal activity against Trypanosoma cruzi epimastigote Dm28c strain assessed as parasite growth inhibition incubated for 96 hrs by Neubauer chamber based light microscopic analysis; assay type: functional, organism-based
[22] = system: Trypanosoma cruzi; test: Antitrypanosomal activity against Trypanosoma cruzi epimastigote assessed as parasite growth inhibition; assay type: functional, organism-based
[23] = system: Trypanosoma cruzi; test: Antitrypanosomal activity against bloodstream Trypanosoma cruzi Y strain trypomastigotes assessed as parasite growth inhibition incubated for 24 hrs by light microscopic analysis; assay type: functional, organism-based

## O=C1NC(=O)/C(=C/c2ccc(Cl)cc2Cl)S1
[1]
  selectivity ratio: 0.82
[2]
  selectivity ratio: 0.76
[3]
  pIC50: 4.35
[4]
  pIC50: 4.39

## C/C(=N\Nc1nc(-c2ccc(Cl)c(Cl)c2)c(C)s1)c1ccccn1
[5]
  pIC50: 5.56

## O=C1c2cccc3cccc(c23)C(=O)C1CCCCCCN=C=[Se]
[6]
  pIC50: 6.70
[7]
  pIC50: 7.52

## NC(=S)N/N=C(/C=C/c1ccccc1)c1ccccc1
[8]
  pIC50: 5.16
[9]
  pIC50: 4.83

## FC(F)(F)c1ccc(C[Se][Se]Cc2ccc(C(F)(F)F)cc2)cc1
[10]
  pIC50: 5.82
[11]
  pIC50: 5.72
[12]
  pIC50: 6.10

## NS(=O)(=O)c1nnc(NC(=O)Cc2ccccc2Br)s1
[13]
  selectivity ratio: 2
[14]
  pIC50: 5.67
[15]
  pIC50: 5.40
[16]
  selectivity ratio: 5

## c1ccc2c(c1)nnn2C[Se][Se]Cn1nnc2ccccc21
[8]
  pIC50: 6.35

## NS(=O)(=O)c1nnc(NC(=O)Cc2ccc(Cl)cc2)s1
[13]
  selectivity ratio: 1
[14]
  pIC50: 5.46
[15]
  pIC50: 5.20
[16]
  selectivity ratio: 1

## O=C(Nc1ccc([Se][Se]c2ccc(NC(=O)c3cccs3)cc2)cc1)c1cccs1
[10]
  pIC50: 4.90
[12]
  pIC50: 4.81

## COc1ccc(CSc2nc3ccccc3s2)cc1
[17]
  LC50: 308 µM
[18]
  selectivity ratio: > 2.92
[19]
  LC50: 276 µM
[20]
  selectivity ratio: > 3.26

## Fc1cccc(CSc2nc3ccccc3s2)c1
[17]
  LC50: > 350 µM
[19]
  LC50: > 350 µM

## CSc1ccc(C[Se][Se]Cc2ccc(SC)cc2)cc1
[10]
  pIC50: 5.77
[11]
  pIC50: 5.74
[12]
  pIC50: 5.92

## C/C(=N\NC(N)=S)c1ccc(Cl)cc1Cl
[21]
  pIC50: 4.61

## O=C1NC(=O)/C(=C/c2ccc(Cl)c(Cl)c2)S1
[1]
  selectivity ratio: 1.85
[2]
  selectivity ratio: 0.66
[3]
  pIC50: 4.18
[4]
  pIC50: 4.63

## c1ccc(CSc2nc3ccccc3s2)cc1
[17]
  LC50: 123 µM
[18]
  selectivity ratio: > 7.29
[19]
  LC50: 336 µM
[20]
  selectivity ratio: > 2.68

## Brc1ccc(-c2csc(N/N=C/c3ccccn3)n2)cc1
[5]
  pIC50: 5.51

## N#C[Se]Cc1ccccc1[N+](=O)[O-]
[10]
  pIC50: 5.89
[11]
  pIC50: 6.05
[12]
  pIC50: 6.30

## COc1ccc(-c2c(/N=C/NC(N)=S)c(C(F)(F)F)nn2-c2ccccc2)cc1
[22]
  pIC50: 4.53

## Cc1ccc(C[Se]C#N)cc1
[10]
  pIC50: 5.35
[11]
  pIC50: 5.52
[12]
  pIC50: 5.51

## O=S(=O)(Nc1ccc([Se][Se]c2ccc(NS(=O)(=O)c3ccc(C(F)(F)F)cc3)cc2)cc1)c1ccc(C(F)(F)F)cc1
[10]
  pIC50: 5.70
[11]
  pIC50: 5.57
[12]
  pIC50: 5.64

## NC(=S)N/C=N/c1c(C(F)(F)F)nn(-c2ccccc2)c1-c1ccc(F)cc1
[22]
  pIC50: 4.16

## C/C(=N\NC(N)=S)c1cc(Cl)ccc1Cl
[21]
  pIC50: 5.18

## Cc1ccc([Te]Cc2ncc(-c3ccc(S(N)(=O)=O)cc3)[se]2)cc1
[8]
  pIC50: 6.47

## COc1ccc([Te]Cc2ccc(S(N)(=O)=O)cc2)cc1
[8]
  pIC50: 5.21

## CC1(C)OC2=C(CC1[Se]c1cccc3ccccc13)C(=O)C(=O)c1ccccc12 (configuration not stated)
[23]
  pIC50: 4.24

## O=C(Nc1ccc([Se][Se]c2ccc(NC(=O)c3ccco3)cc2)cc1)c1ccco1
[10]
  pIC50: 5.74
[12]
  pIC50: 5.49

## CCC(C)Oc1cc(N)nc(Sc2cccc(Cl)c2)n1 (configuration not stated)
[8]
  pIC50: < 6.60
[9]
  pIC50: 4.53

## O=C1NC(=O)/C(=C/c2ccccc2Cl)S1
[1]
  selectivity ratio: 0.89
[2]
  selectivity ratio: 0.86
[3]
  pIC50: 4.15
[4]
  pIC50: 4.16

## NC(=S)N/C=N/c1c(C(F)(F)F)nn(-c2ccccc2)c1-c1ccc(Cl)cc1
[22]
  pIC50: 4.31

## Fc1c(F)c(F)c(CSc2nc3ccccc3s2)c(F)c1F
[17]
  LC50: 147 µM
[18]
  selectivity ratio: 1.69
[19]
  LC50: 185 µM
[20]
  selectivity ratio: 1.34

## O=C1C(=O)c2ccccc2C2=C1CC(C[Se]c1cccc(C(F)(F)F)c1)O2 (configuration not stated)
[23]
  pIC50: 4.12

## N#C[Se]Cc1cccc(C#N)c1
[10]
  pIC50: 6.05
[11]
  pIC50: 6.00
[12]
  pIC50: 6.10

## [Se]=C=NCCCCc1ccccc1 [PHENYLBUTYL ISOSELENOCYANATE]
[6]
  pIC50: 5.35
[7]
  pIC50: 5.14

## NS(=O)(=O)c1ccc(-c2cnc(C[Se]c3ccccc3)[se]2)cc1
[8]
  pIC50: 5.39
